Test results: patent publication US20100192451A1, “MOSQUITO ATTRACTANT COMPOSITIONS AND METHODS” (priority 2008, published 2010)

Tests used:
gravid Ae. aegypti [1] = experiment: Egg-laying (contact-mediated) binary choice bioassay; assay type: in vivo, Aedes aegypti; conditions: for induction of egg laying by synthetic compounds: 1, 10 and 100 ng in 30 mL water
Description: Modifications of the olfactory- and contact-mediated bioassays previously described (Trexler J D, Apperson C S, Schal C (1998) J Med Entomol 35:967-976) were used to measure the response of gravid mosquitoes to plant infusions (or bacterial compounds). Briefly, two 125-mL polypropylene cups (test and control) were placed randomly in diagonal corners of a Plexiglas cage (30×30×30 cm) that was fitted with a stockinet cloth sleeve (AlbaHealth, Rockwood, Tenn.). Each cup was filled with 30 mL of either test or control solution. White paper sleeves were placed around each bioassay cup to mask visual cues presented by darkly colored leaf infusions. Adults had ad libitum access to water contained in a polypropylene cup that was fitted with a lid with a cotton wick protruding through a hole in the lid. For egg-laying bioassays, either one or five gravid females were released in each replicate cage. Cages were placed randomly on racks in a room where environmental conditions were the same as in the insectary. After a 24 h exposure period, eggs laid on the surface of the water in the test and control cups were counted. In olfactory bioassays, 10 gravid females were released in each bioassay cage. A circular metal wire-mesh screen covered with insect glue (Tanglefoot; Tanglefoot Co.) was inserted in each cup on top of an insert cut from a 120-mL polypropylene cup. Sticky screens were placed above test and control media, 2.5 cm below the lip of each cup. The mesh size of the metal screen prevented females from entering without landing on the screen. Therefore, positive or negative responses to the test infusions were measured by the numbers of females trapped during a 24 h exposure period on the sticky screen in the test and control cups.
For each replicate bioassay cage, the numbers of eggs laid in the test and control cups were converted to the proportion of the total number of eggs laid. The proportions were subjected to an arcsin√x transformation to achieve approximate normality. A one-tailed paired t test was used to determine whether differences in the mean transformed proportion of eggs deposited in test and control cups were statistically significant.
Synthetic compounds were bioassayed by placing hexane solutions on the surface of sterile distilled water; water in control cups was treated with hexane alone. The hexane was evaporated in a fume hood before bioassays commenced. Each bioassay was with a single female and lasted 72 h.

gravid Ae. aegypti [2] = experiment: as above; assay type: in vivo, Aedes aegypti; conditions: for Eggs per assay: five females per assay, 24-h
[3] = dose 1 ng in 30 mL water, single female, 72 h
[4] = dose 10 ng in 30 mL water, single female, 72 h
[5] = dose 10 ng, single female, 72 h
[6] = dose 100 ng in 30 mL water, single female, 72 h
[7] = dose 100 ng, single female, 72 h
[8] = 1 ng, five females, 24 h assays
[9] = dose 0.01 ng, five females per assay, 24-h
[10] = dose 0.1 ng, five females per assay, 24-h
[11] = dose 1.0 ng, five females per assay, 24-h
[12] = dose 0.01 mg, single female, 72 h
[13] = dose 0.1 mg, single female, 72 h
[14] = dose 1.0 mg, single female, 72 h

Row | Structure (SMILES) | Treatment, % (eggs in treatment cup) (gravid Ae. aegypti [1]; [3]) [%] | Eggs per assay (gravid Ae. aegypti [1]; dose 1 ng, single female, 72 h) | Treatment, % (eggs in treatment cup) (gravid Ae. aegypti [1]; [4]) [%] | Eggs per assay (gravid Ae. aegypti [1]; [5]) | Treatment, % (eggs in treatment cup) (gravid Ae. aegypti [1]; [6]) [%] | Eggs per assay (gravid Ae. aegypti [1]; [7]) | induction of egg laying by synthetic compounds (gravid Ae. aegypti [1]; single female, 72 h) | further results
1 | CCCCCCCCCC(=O)O [Decanoic acid] | 43.7 | 60.0 ± 5.6 | 52.2 | 61.3 ± 5.0 | 45.8 | 67.0 ± 7.0 |  | 
2 | CCCCCCCCC(=O)O [Nonanoic acid] | 38.6 | 70.9 ± 4.0 | 58.3 | 74.3 ± 6.1 | 69.1 | 80.0 ± 3.3 | highly effective at inducing egg laying | 
3 | CCCCCCCCCCCCCC(=O)O [Tetradecanoic acid] | 45.4 | 79.6 ± 2.7 | 81.0 | 87.7 ± 5.1 | 62.1 | 80.2 ± 5.2 | highly effective at inducing egg laying | oviposition stimulation (gravid Ae. aegypti [2]; [8]): highly stimulatory; Eggs per assay (gravid Ae. aegypti [2]; dose 10 ng): 196.4 ± 23.2; Eggs per assay (gravid Ae. aegypti [2]; dose 100 ng): 260.4 ± 30.9; eggs per female in 24 h (gravid Ae. aegypti [1]; [8]): 43.4±3.9; diversion of oviposition to treated water (gravid Ae. aegypti [1]; 10 ng, single female, 72 h): diverted the greatest amount of oviposition to the treated water; Eggs per assay (gravid Ae. aegypti [1]; [9]): 318.5 ± 14.4; Treatment, % (eggs in treatment cup) (gravid Ae. aegypti [1]; [9]): 52.3%; Eggs per assay (gravid Ae. aegypti [1]; [10]): 232.1 ± 22.3; Treatment, % (eggs in treatment cup) (gravid Ae. aegypti [1]; [10]): 57.8%; Eggs per assay (gravid Ae. aegypti [1]; [11]): 216.8 ± 19.4; Treatment, % (eggs in treatment cup) (gravid Ae. aegypti [1]; [11]): 76.9%; Treatment, % (eggs in treatment cup) (gravid Ae. aegypti [1]; dose 10 ng, five females per assay, 24-h): 57.9%; Treatment, % (eggs in treatment cup) (gravid Ae. aegypti [1]; dose 100 ng, five females per assay, 24-h): 38.7%
4 | CCCCCCCCCCCCCCCC(=O)O [Hexadecanoic acid] | 53.4 | 63.7 ± 4.2 | 43.2 | 63.5 ± 4.9 | 38.2 | 71.8 ± 4.8 |  | 
5 | CCCCCCCCCCCCCC(=O)OC [Tetradecanoic acid, methyl ester] | 55.0 | 68.3 ± 5.4 | 70.2 | 64.0 ± 7.1 | 51.0 | 70.6 ± 6.0 | highly effective at inducing egg laying | 
6 | CCCCCCCCCCCCCCCCCC(=O)O [Octadecanoic acid] | 55.1 | 71.3 ± 3.3 | 46.4 | 69.0 ± 3.6 | 58.4 | 64.8 ± 4.8 |  | 
7 | CCCCCCCCCCCC(=O)O [Dodecanoic acid] | 47.0 | 67.3 ± 4.0 | 43.4 | 66.3 ± 3.1 | 47.6 | 63.8 ± 3.4 |  | Eggs per assay (gravid Ae. aegypti [1]; [12]): 66.5 ± 4.2; Treatment, % (eggs in treatment cup) (gravid Ae. aegypti [1]; [12]): 52.2%; Eggs per assay (gravid Ae. aegypti [1]; [13]): 64.4 ± 2.9; Treatment, % (eggs in treatment cup) (gravid Ae. aegypti [1]; [13]): 45.8%; Eggs per assay (gravid Ae. aegypti [1]; [14]): 60.2 ± 2.8; Treatment, % (eggs in treatment cup) (gravid Ae. aegypti [1]; [14]): 42.2%
8 | CCCCCCCCCCCCCCCC(=O)OC [Hexadecanoic acid, methyl ester] | 34.7 | 51.0 ± 3.5 | 59.1 | 51.3 ± 3.0 | 60.4 | 58.6 ± 3.8 |  | 
